Each structure is given as a SMILES string.

For data set [1], the system named is Jurkat: Human T-cell leukemia. Description: Inhibitory test against cancer cell proliferation (1), MTS method. It is filed as cell-based. Conditions: 50% inhibitory concentration against proliferation, cultured for 3 days. The method, then:
(§1) Cancer cells (Jurkat: Human T-cell leukemia, MIA PACA-2: Human pancreatic cancer, RD: Human rhabdomyoma, HepG2: Human liver cancer) were cultured for 3 days in the presence or absence of a test compound using RPMI1640 medium containing 10% bovine fetal serum or Dalbecco's Modified Eagle's Medium containing 10% FBS. The number of living cells was counted by MTS method, and amounts of cell proliferation were compared and inhibitory ratios were measured. In the table below, 50% inhibitory concentrations against the proliferation of each cancer cell are shown.
(Tetrazolium assays rely on reduction of a dye to a coloured formazan, in cell work by metabolically active cells.)

The test system of data set [2] is HepG2: Human liver cancer. The description is as above. Type of data set: cell-based. The settings on record: 50% inhibitory concentration against proliferation, cultured for 3 days. The method, then:
as §1

The subject of data set [3] is RD: Human rhabdomyoma. The description is as above. It is filed as cell-based. The settings on record: 50% inhibitory concentration against proliferation, cultured for 3 days. On the procedure:
as §1

The test system of data set [4] is MIA PACA-2: Human pancreatic cancer. The data set is described as above. Conditions: 50% inhibitory concentration against proliferation, cultured for 3 days. Type of data set: cell-based. On the procedure:
as §1

The subject of data set [5] is B16 melanoma. Description: Metastasis inhibitory test using mouse bearing B16 melanoma. Type of data set: in vivo, B6 mouse. More on the design: key to Colony Formation (melanoma colonies in the lungs vs control): ±: Same as control; +: Inhibited; ++: Remarkably inhibited; +++: No Formation. The settings on record: 30 mg/kg intraperitoneal once a day for 5 weeks, B16 melanoma cells inoculated by tail vein. On the procedure: B16 melanoma cells (5×10^5 cells/mouse) were inoculated from a tail vein of a B6 mouse of the same kind by intravenous injection, and a test substance was administered once a day for 5 weeks from the day of the inoculation by intraperitoneal injection. Then, the test animal was sacrificed and the lungs were removed. The number of colonies of melanoma in the lungs was compared with that in the control (test substance administered at 0 mg/kg).

For data set [6], the system named is A549: human lung cancer. Description: Inhibitory test against cancer cell proliferation (3). It is filed as cell-based. Conditions: Test Example 6, 50% inhibitory concentration against proliferation, similar operations to Test Example 1. On the procedure:
as §1
(§2) Similar operations to Test Example 1 were carried out using cancer cells (HepG2: human liver cancer, A^549: human lung cancer, MIA PACA-2: human pancreatic cancer). In the table below, 50% inhibitory concentrations against proliferation of each cancer cell are shown.

Data set [7] concerns HepG2: Human liver cancer. The description is as above. It is filed as cell-based. Conditions: Test Example 6, 50% inhibitory concentration against proliferation, similar operations to Test Example 1. The method, then:
as §1, §2

Data set [8] concerns MIA PACA-2: Human pancreatic cancer. The data set is described as above. Conditions: Test Example 6, 50% inhibitory concentration against proliferation, similar operations to Test Example 1. It is filed as cell-based. On the procedure: as §1, §2

One may read the IC50 as the point on the concentration scale where inhibition reaches its midpoint. For the compound `O=C(Nc1cc(C(F)(F)F)cc(C(F)(F)F)c1)c1cc(Cl)ccc1O` [compound 4, N-[3,5-bis(trifluoromethylphenyl)]-5-chloro-2-hydroxybenzamide], the half-inhibitory concentration (IC50) in data set [1] was determined as 0.74 µM; in data set [2] it was 0.69 µM; in [3] it was 1.03 µM; in [4] it was 0.65 µM; in data set [6], 4.03 µM; in [7] it was 0.72 µM. The compound further gave an IC50 in data set [8] of 0.82 µM. The “Colony Formation (melanoma colonies in the lungs vs control)” value in data set [5] is recorded as “++”. Moreover, the “Survival Ratio after 5 weeks(%)” value in [5] (control 50%) amounted to 100%.
Regarding `O=C(Nc1cc(C(F)(F)F)cc(C(F)(F)F)c1)c1cc(-n2cccc2)ccc1O` [compound 27], the IC50 in [1] came out at 1.2 µM; in data set [2], 1.96 µM; in [3] it was 1.26 µM; in [4] it was 1.19 µM.
With `CC(C)(C)c1nc(NC(=O)c2cc(Br)ccc2O)sc1N1CCOCC1` [compound 205, 5-Bromo-N-{4-[(1,1-dimethyl)ethyl]-5-morpholinothiazol-2-yl}-2-hydroxybenzamide], the IC50 in data set [1] (Homo sapiens, Jurkat, 72 h) is 1.89 µM; in data set [2] (Homo sapiens, HepG2, 72 h) it was 3.5 µM; in data set [3] (Homo sapiens, 72 h), 1.94 µM; in [4] (Homo sapiens, MIA PaCa-2, 72 h) it was 1.45 µM; in [6] (Homo sapiens, A549), > 10 µM; in data set [7] (Homo sapiens, HepG2), 4.23 µM. The IC50 in data set [8] (Homo sapiens, MIA PaCa-2) was > 10 µM.
For the compound `CC(C)(C)c1nc(NC(=O)c2cc(Br)ccc2O)sc1N1CCN(c2ccccc2)CC1` [compound 207, 5-Bromo-N-{4-[(1,1-dimethyl)ethyl]-5-(4-phenylpiperazin-1-yl)thiazol-2-yl}-2-hydroxybenzamide], the IC50 in data set [1] (Homo sapiens, Jurkat, 72 h) was found to be 1.64 µM; in data set [2] (Homo sapiens, HepG2, 72 h), 1.76 µM; in [3] (Homo sapiens, 72 h), 1.52 µM; in [4] (Homo sapiens, MIA PaCa-2, 72 h), 1.26 µM.
Broadly, the melting point is the temperature, or range, at which the solid turns liquid. `CC(=O)Oc1ccccc1C(=O)Nc1cc(Cl)cc(Cl)c1` [compound 120, 2-acetoxy-N-(3,5-dichlorophenyl)benzamide] had a melting point of 218 to 219 °C.
`CC(C)(C)C(=O)c1sc(NC(=O)c2cc(Cl)ccc2O)nc1C(C)(C)C` [compound 199, 5-Chloro-N-{4-[(1,1-dimethyl)ethyl]-5-[(2,2-dimethyl)propionyl]thiazol-2-yl}-2-hydroxybenzamide]: the 50% inhibitory concentration (IC50) in data set [1] (Homo sapiens, Jurkat, 72 h) came to 0.44 µM; in data set [2] (Homo sapiens, HepG2, 72 h), 1.26 µM; in data set [3] (Homo sapiens, 72 h), 0.57 µM; in data set [4] (Homo sapiens, MIA PaCa-2, 72 h), 0.46 µM; in data set [6] (Homo sapiens, A549) it was 5.15 µM; in [7] (Homo sapiens, HepG2), 0.59 µM. Further, half-maximal inhibition in data set [8] (Homo sapiens, MIA PaCa-2) (IC50) was put at 0.56 µM.
Regarding `CC(C)(C)c1ccc(O)c(C(=O)Nc2cc(C(F)(F)F)cc(C(F)(F)F)c2)c1` [compound 11, N-[3,5-Bis(trifluoromethyl)phenyl]-5-[(1,1-dimethyl)ethyl]-2-hydroxybenzamide], the IC50 in data set [1] (Homo sapiens, Jurkat, 72 h) was 1.21 µM; in data set [2] (Homo sapiens, HepG2, 72 h), 1.82 µM; in data set [3] (Homo sapiens, 72 h), 1.96 µM; in data set [4] (Homo sapiens, MIA PaCa-2, 72 h), 0.78 µM.
For the compound `O=C(Nc1cc(C(F)(F)F)cc(C(F)(F)F)c1)c1cc(C(=O)N2CCC(Cc3ccccc3)CC2)ccc1O` [compound 40, N-[3,5-Bis(trifluoromethyl)phenyl]-2-hydroxy-5-(4-benzylpiperidine-1-carbonyl)benzamide], the melting point was in the range of 179 to 180 °C.
`O=C(Nc1nc(-c2ccccc2)c(C(=O)c2ccccc2)s1)c1cc(Br)ccc1O` [compound 215, 5-Bromo-N-(5-benzoyl-4-phenylthiazol-2-yl)-2-hydroxybenzamide]: the IC50 stood at 8.31 µM in data set [6] (Homo sapiens, A549); 4.98 µM in [7] (Homo sapiens, HepG2); 2.76 µM in [8] (Homo sapiens, MIA PaCa-2).

Values taken from patent US20060014811A1, “Medicament for treatment of cancer” (priority 2002, published 2006).
